From article PMC11772017 (Clinical and Translational Science, 2025)
Structures can show the parent of a compound that is named as a salt.

How the values were obtained:
[1] = molecular target: T1, CYP2D6*1 (Homo sapiens, UniProt P10635); test: Inhibition of tramadol O-demethylation, CYP2D6*1 Bactosomes
[2] = molecular target: T2, CYP2D6*17 (Homo sapiens, UniProt P10635, R296C/S486T/T107I); test: Inhibition of tramadol O-demethylation, CYP2D6*17 Bactosomes; details: for Ki Ratio CYP2D6*17/CYP2D6*1: Ki of variant allele / Ki of CYP2D6*1
[3] = molecular target: T3, CYP2D6*2 (Homo sapiens, UniProt P10635, R296C/S486T); test: Inhibition of tramadol O-demethylation, CYP2D6*2 Bactosomes; details: for Ki Ratio CYP2D6*2/CYP2D6*1: Ki of variant allele / Ki of CYP2D6*1
[4] = molecular target: T4, CYP2D6*10 (Homo sapiens, UniProt P10635, P34S/S486T); test: Inhibition of tramadol O-demethylation, CYP2D6*10 Bactosomes; details: for Ki Ratio CYP2D6*10/CYP2D6*1: Ki of variant allele / Ki of CYP2D6*1
[5] = molecular target: T1, CYP2D6*1
[6] = system: CYP2D6*17; details: tramadol as substrate; cited from earlier work
[7] = molecular target: T4, CYP2D6*10
[8] = system: CYP2D6*10; details: microsomes prepared from insect cells; cited from earlier work
[9] = molecular target: T2, CYP2D6*17
[10] = molecular target: T3, CYP2D6*2

Q: Which Ki [1] does the source give for CC(NC(C)(C)C)C(=O)c1cccc(Cl)c1 (stereo not drawn) [Bupropion, bupropion] here?
A: 11.9 µM

Q: What about the Ki [2] of the same compound?
A: 20.2 µM

Q: What about the “Ki Ratio CYP2D6*17/CYP2D6*1” value [2] of the same compound?
A: 1.70

Q: And the Ki [3]?
A: 11.5 µM

Q: And the “Ki Ratio CYP2D6*2/CYP2D6*1” value [3]?
A: 0.96

Q: And the Ki [4]?
A: 55.9 µM

Q: What about the “Ki Ratio CYP2D6*10/CYP2D6*1” value [4] of the same compound?
A: 4.69

Q: What does the source list for CN(C/C=C/C#CC(C)(C)C)Cc1cccc2ccccc12 [Terbinafine, terbinafine]?
A: Ki [1]: 0.0173 µM; Ki [2]: 0.844 µM; Ki Ratio CYP2D6*17/CYP2D6*1 [2]: 48.77; Ki [3]: 0.067 µM; Ki Ratio CYP2D6*2/CYP2D6*1 [3]: 3.87; Ki [4]: 0.235 µM; Ki Ratio CYP2D6*10/CYP2D6*1 [4]: 13.61

Q: Which results are given for COc1cccc(C2(O)CCCCC2CN(C)C)c1 (stereo not drawn) [Tramadol, tramadol hydrochloride]?
A: CLint ([5]; CYP2D6*1, CLint = Vmax/Km): 0.4 μL/min/pmol P450; Vmax ([5]; CYP2D6*1, O-desmethyltramadol formation): 22.6 pmol/min/pmol P450; Km at 30 min ([5]; human, recombinant CYP2D6*1 Bactosomes, pH 7.4): 59.6 µM; intrinsic clearance relative to CYP2D6*1 [6]: 36%; intrinsic clearance compared to CYP2D6*1 ([7]; CYP2D6*10, relative to CYP2D6*1): 20%; CLint ratio CYP2D6*X/CYP2D6*1 ([7]; CYP2D6*10/CYP2D6*1): 0.2; CLint ([7]; CYP2D6*10, CLint = Vmax/Km): 0.1 μL/min/pmol P450; Vmax ([7]; CYP2D6*10, O-desmethyltramadol formation): 13.6 pmol/min/pmol P450; Km at 30 min ([7]; human, recombinant CYP2D6*10 Bactosomes, pH 7.4): 204 µM; intrinsic clearance value, % of that for CYP2D6*1 [8]: 6.9%; intrinsic clearance compared to CYP2D6*1 ([9]; CYP2D6*17, relative to CYP2D6*1): 10%; CLint ratio CYP2D6*X/CYP2D6*1 ([9]; CYP2D6*17/CYP2D6*1): 0.1; Vmax ([9]; CYP2D6*17, O-desmethyltramadol formation): 5.6 pmol/min/pmol P450; Km at 30 min ([9]; human, recombinant CYP2D6*17 Bactosomes, pH 7.4): 149 µM; intrinsic clearance compared to CYP2D6*1 ([10]; CYP2D6*2, relative to CYP2D6*1): 180%; CLint ratio CYP2D6*X/CYP2D6*1 ([10]; CYP2D6*2/CYP2D6*1): 1.8; CLint ([10]; CYP2D6*2, CLint = Vmax/Km): 0.7 μL/min/pmol P450; Vmax ([10]; CYP2D6*2, O-desmethyltramadol formation): 39.7 pmol/min/pmol P450; Km at 30 min ([10]; human, recombinant CYP2D6*2 Bactosomes, pH 7.4): 59.4 µM
